# Assay results from patent publication US6790619B2, “Plant phosphomevalonate kinases” (Bayer Aktiengesellschaft, priority 2000, dated 2004).
# “Also recorded” adds a separate entry of the source.
# Test system: PMVK expression
# Test: virtual Northern blot analysis of differential PMVK expression in response to chlorsulfuron
# Assay type: in vivo, Arabidopsis thaliana cv. Columbia
# Conditions: Arabidopsis plants harvested 24 hours after treatment with chlorsulfuron 10 g/ha vs control treatment
# Description: Suppression subtractive hybridization constitutes a method of isolating differentially expressed genes. The two samples to be compared were on the one hand Arabidopsis plants which had been harvested 24 hours after treatment with a herbicide (chlorsulfuron, 10 g/ha) and, on the other hand, Arabidopsis plants which had been harvested 24 hours after a control treatment. The 370 bp PMVK fragment was isolated from the chlorsulfuron-treated plants in which PMVK transcription may have been induced by the treatment. To verify differential PMVK expression in the response to chlorsulfuron, so-called virtual Northern blot analyses were carried out. In a virtual Northern blot, cDNA is prepared from total RNA with Clontech's SMART method (see manufacturer's instructions) and amplified by PCR. A low enough number of PCR cycles is employed so that the amplification is still within the linear range of the PCR. In the present case, an optimum between 15 and 18 cycles emerged. The SMART cDNA is separated on an agarose gel by methods known to the skilled worker, transferred to a nylon membrane and hybridized with a DIG-labelled probe. This method permits study of the expression even of genes with a low expression level.
structure (smiles),measurement,value
COc1nc(C)nc(NC(=O)NS(=O)(=O)c2ccccc2Cl)n1 [chlorsulfuron],induction of PMVK expression,low degree of induction; also recorded: possible to induce this gene
